Experimental data published in patent publication US12521414B2, “Method for preventing or treating urological chronic pelvic pain syndrome” (priority 2022, dated 2026).

Tested on: Human urothelial T24 cells
Experiment: WST-1 cell viability assay, 4-HC-induced loss of T24 viability
Assay type: cell-based
Details: 37.5 μM 4-HC for 4 h, WST-1 assay, n=3
Procedure: FIGS. 2A to 2D illustrate the CeNPs testing with human urothelial T24 cells in vitro. FIG. 2A illustrates that T24 cells were treated with 4-HC at concentrations of 0, 12.5, 25, 37.5, 50, 75, and 100 μM for 4 h (hours). Cell viability was examined utilizing the WST-1 assay (MK400, Takara, Mountain View, CA, USA).
FIG. 2B illustrates that 4-HC-induced loss of T24 viability was rescued by cerium oxide nanoparticle (CeNP) treatment (n=3). […] Fluorescence microscope images of the groups: (1) control group; (2) only 4-HC group: 37.5 μM 4-HC added for 4 h to induce cell oxidative stress; (3) CeNP treatment group: 5 μg/mL CeNPs were applied for 24 h before 4-h induction with 37.5 μM 4-HC; and (4) CeNP-only group: only 5 μg/mL CeNPs were applied for 24 h. […] Values are expressed as the mean±SD. Data were analyzed by one-way analysis of variance with Tukey's multiple comparisons test. *P<0.05, **P<0.01. n.s.: no statistical difference, (n=3).
Human urothelial T24 cells (#60062, BCRC, Taiwan) were cultured in 90% McCoy's 5a medium (Sigma, St. Louis, MO, USA) with 1.5 mM L-glutamine, 10% (v/v) fetal bovine serum, and 1% (v/v) PS. Cells were maintained at 37° C. in a humidified incubator containing 5% CO2 [6], and 4-HC was used to induce cellular oxidative stress. T24 cells were seeded into a 96-well plate at a density of 10^4 cells/well and incubated for 24 h until full adhesion was achieved. […]

Compound: O=P1(N(CCCl)CCCl)NC(OO)CCO1 (stereo not shown) [4-HC, 4-hydroperoxycyclophosphamide]
- cell viability of T24 cells: approximately 50%
